Assay results taken from publication PMC5629628, “The development of activatable lytic peptides for targeting triple negative breast cancer” (Cell Death Discovery, 2017).
Where two headings read alike, the source gives them in different places. Non-standard residues stand in square brackets, D forms with d. Residues, ends and D or L forms follow the SMILES beside them. Aib = CC(C)(N)C(=O)O; Ahx = NCCCCCC(=O)O; βAla = NCCC(=O)O

Legend:
MDA-MB-231 [1] = assay: MTT cell viability, MDA-MB-231; type: cell-based, human; conditions: for IC50: 5% FBS medium, 310 K, mean (standard deviation)
mouse red blood cells = assay: Haemolytic activity; type: cell-based
Experimental: Fresh mouse red blood cells were collected and centrifuged at 800 rpm for 5 min. The erythrocytes were washed and re suspended in 0.9% NaCl to 10^8/ml. A serial dilution of peptides were added and incubate at 310 K. After 1 h incubation, erythrocytes were centrifuged and the release of hemoglobin was monitored by measuring the absorbance of supernatant at 570 nm by a microplate reader (PerkinElmer).

MDA-MB-231 [2] = assay: Cell viability with or without caspase inhibitor Z-VAD-FMK; type: cell-based, human
MCF-7 = conditions: read-out: IC50 (μM), MCF-7; MTT assay, 24 h treatment, 5% FBS medium, 310 K; mean (standard deviation)
Experimental: (§1) 100 μl of 4×10^4/ml cell suspension (MDA-MB-231, MCF-7, HeLa, SK-OV-3) was placed in each well of the 96-well culture plate and allowed to grow in dulbecco's modified eagle medium or Leibovitz medium (L-15) supplemented with 10% fetal bovine serum overnight. The cells were incubated with serial dilution of compounds at 310 K in 5% fetal bovine serum containing media for 24 h supplied with 5% CO2. At the end of the compounds exposure, 20 μl of 3-(4,5-dimethyl-2-thiazolyl)-2,5-diphenyl-2-H-tetrazolium bromide reagent was added and incubated at 310 K for 4 h. The absorbance of formazan product was measured at 490 nm by a microplate reader (PerkinElmer, Waltham, MA, USA). Cells without peptide were treated as control. *P<0.05, **P<0.01, ***P<0.001 compared with vehicle-treated cells. In Z-VAD-FMK assays, *P<0.05, **P<0.01, ***P<0.001 compared with cells without treatment of Z-VAD-FMK.

SK-OV-3 = conditions: read-out: IC50 (μM), SK-OV-3; MTT assay, 24 h treatment, 5% FBS medium, 310 K; mean (standard deviation)
Experimental: as §1

HeLa = conditions: read-out: IC50 (μM), HeLa; MTT assay, 24 h treatment, 5% FBS medium, 310 K; mean (standard deviation)
Experimental: as §1

MDA-MB-231 tumour = assay: In vivo fluorescence imaging and tissue distribution; set-up: species or system mice; conditions: Cy5-labelled peptides, n=2; for tumour accumulation (in vivo fluorescence imaging): 100 μl 50 μM, tail vein, MDA-MB-231 tumour-bearing mice
Experimental: Four-week-old nude mice were purchased from the Vital River (Beijing, China) and allowed to grow for further two weeks. Approximately 1×10^6 MDA-MB-231 cells were injected into the mammary fat pads of female mice in a vehicle of 4 mg/ml Matrigel (Becton Dickinson and Co., New York, NY, USA). One week later, mice bearing tumours around 50 mm^3 in volume were randomly divided into groups for subsequent experiments.
For optical imaging, mice were anesthetized with isoflurane. Cy5-labelled peptides were injected intravenously at a dose of 100 μl, 50 μM. At each time point, mice were again anesthetized and imaged using IVIS Spectrum Pre-clinical In Vivo Imaging System (640 nm/680 nm). Fluorescence in manually set regions of interest was quantified by Living Image. The contrast ratio was calculated by dividing the tumour fluorescence by the chest and abdomen fluorescence.

nude mice = assay: Acute toxicity in mice; type: in vivo; conditions: 40 mg/kg (200 μl, 4 mg/ml) intravenous, n=3 per group
Experimental: (§2) In acute toxicity studies, 12 mice were divided into four groups (n=3 for each group) and administered via intravenous injection with peptide (e8-Uk14, e7-Ur11) at the dose of 20 or 40 mg/kg. In chronic renal toxicity studies, mice were administered via intravenous injection with peptide (e8-Uk14, e7-Ur11) at the dose of 20 mg/kg every other day over a periods of 2 weeks.

HEK293T = assay: Cell viability, non-tumourigenic HEK293T; type: cell-based; conditions: 24 h treatment
kidney = assay: Chronic renal toxicity, kidney haematoxylin-eosin staining; type: in vivo, mice; conditions: 20 mg/kg i.v. every other day over 2 weeks
Experimental: as §2

[3] = organs excised 6 h after injection
[4] = mouse red blood cells 10^8/ml in 0.9% NaCl, 1 h, 310 K, absorbance 570 nm

## CC(=O)N[C@H](Cc1c[nH]c2ccccc12)C(=O)NCCC(=O)N[C@H](CCCCN)C(=O)N[C@H](CC(C)C)C(=O)NC(C)(C)C(=O)N[C@H](CCCCN)C(=O)N[C@H](CCCCN)C(=O)N[C@H](CC(C)C)C(=O)NC(C)(C)C(=O)N[C@H](CCCCN)C(=O)N[C@H](CC(C)C)C(=O)NC(C)(C)C(=O)N[C@H](CCCCN)C(N)=O [Uk11] (Ac-[dW][βAla][dK][dL][Aib][dK][dK][dL][Aib][dK][dL][Aib][dK]-NH2)
MDA-MB-231 [1]; MTT assay, 24 h treatment
  cytotoxic activity towards MDA-MB-231 cells (in words): decreased efficiency

## CC(=O)N[C@H](Cc1c[nH]c2ccccc12)C(=O)NCCC(=O)N[C@H](CCCCN)C(=O)N[C@H](CC(C)C)C(=O)NC(C)(C)C(=O)N[C@H](CCCCN)C(=O)N[C@H](CC(C)C)C(=O)NC(C)(C)C(=O)N[C@H](CCCCN)C(=O)N[C@H](CCCCN)C(=O)N[C@H](CC(C)C)C(=O)NC(C)(C)C(=O)N[C@H](CCCCN)C(=O)N[C@H](CC(C)C)C(=O)NC(C)(C)C(=O)N[C@H](CCCCN)C(N)=O [Uk14] (Ac-[dW][βAla][dK][dL][Aib][dK][dL][Aib][dK][dK][dL][Aib][dK][dL][Aib][dK]-NH2)
MDA-MB-231 [1]; MTT assay, 24 h treatment
  IC50: 4.5 µM
Mouse red blood cells
  haemolytic activity: strong haemolytic activity
MDA-MB-231 [2]
  effect of caspase inhibitor Z-VAD-FMK on cytotoxic effect: did not block
MCF-7
  IC50: 4.7 µM
SK-OV-3
  IC50: 5.1 µM
HeLa
  IC50: 4.8 µM

## CC(=O)N[C@H](Cc1c[nH]c2ccccc12)C(=O)NCCC(=O)N[C@H](CC(C)C)C(=O)NC(C)(C)C(=O)N[C@H](CCCNC(=N)N)C(=O)N[C@H](CCCNC(=N)N)C(=O)N[C@H](CC(C)C)C(=O)NC(C)(C)C(=O)N[C@H](CCCNC(=N)N)C(=O)N[C@H](CC(C)C)C(=O)NC(C)(C)C(=O)N[C@H](CCCNC(=N)N)C(N)=O [Ur10] (Ac-[dW][βAla][dL][Aib][dR][dR][dL][Aib][dR][dL][Aib][dR]-NH2)
MDA-MB-231 [1]; MTT assay, 24 h treatment
  cytotoxic activity towards MDA-MB-231 cells (in words): greatly diminished activity

## CC(=O)N[C@H](Cc1c[nH]c2ccccc12)C(=O)NCCC(=O)N[C@H](CCCNC(=N)N)C(=O)N[C@H](CC(C)C)C(=O)NC(C)(C)C(=O)N[C@H](CCCNC(=N)N)C(=O)N[C@H](CCCNC(=N)N)C(=O)N[C@H](CC(C)C)C(=O)NC(C)(C)C(=O)N[C@H](CCCNC(=N)N)C(=O)N[C@H](CC(C)C)C(=O)NC(C)(C)C(=O)N[C@H](CCCNC(=N)N)C(N)=O [Ur11] (Ac-[dW][βAla][dR][dL][Aib][dR][dR][dL][Aib][dR][dL][Aib][dR]-NH2)
MDA-MB-231 [1]
  cytotoxic activity towards MDA-MB-231 cells (in words): no change in activity
MDA-MB-231 [1]; MTT assay, 24 h treatment
  IC50: 8.9 µM
Mouse red blood cells
  haemolytic activity: strong haemolytic activity
MDA-MB-231 [2]
  effect of caspase inhibitor Z-VAD-FMK on cytotoxic effect: did not block
MCF-7
  IC50: 5.6 µM
SK-OV-3
  IC50: 5.1 µM
HeLa
  IC50: 5.9 µM

## CC(=O)N[C@H](Cc1c[nH]c2ccccc12)C(=O)NCCC(=O)N[C@H](CCCNC(=N)N)C(=O)N[C@H](CC(C)C)C(=O)NC(C)(C)C(=O)N[C@H](CCCNC(=N)N)C(=O)N[C@H](CC(C)C)C(=O)NC(C)(C)C(=O)N[C@H](CCCNC(=N)N)C(=O)N[C@H](CCCNC(=N)N)C(=O)N[C@H](CC(C)C)C(=O)NC(C)(C)C(=O)N[C@H](CCCNC(=N)N)C(=O)N[C@H](CC(C)C)C(=O)NC(C)(C)C(=O)N[C@H](CCCNC(=N)N)C(N)=O [Ur14] (Ac-[dW][βAla][dR][dL][Aib][dR][dL][Aib][dR][dR][dL][Aib][dR][dL][Aib][dR]-NH2)
MDA-MB-231 [1]; MTT assay, 24 h treatment
  cytotoxic activity towards MDA-MB-231 cells (in words): no significant improvements

## CC(=O)N[C@H](Cc1c[nH]c2ccccc12)C(=O)NCCC(=O)N[C@H](CCCCN)C(=O)N[C@H](CC(C)C)C(=O)N[C@H](C)C(=O)N[C@H](CCCCN)C(=O)N[C@H](CC(C)C)C(=O)N[C@H](C)C(=O)N[C@H](CCCCN)C(=O)N[C@H](CCCCN)C(=O)N[C@H](CC(C)C)C(=O)N[C@H](C)C(=O)N[C@H](CCCCN)C(=O)N[C@H](CC(C)C)C(=O)N[C@H](C)C(=O)N[C@H](CCCCN)C(N)=O [ak14]
MDA-MB-231 [1]; MTT assay, 24 h treatment
  cytotoxic activity towards MDA-MB-231 cells (in words): only moderate efficiency
  IC50: > 30 µM

## CC(=O)N[C@H](Cc1c[nH]c2ccccc12)C(=O)NCCC(=O)N[C@H](CCC(=O)O)C(=O)N[C@H](CCC(=O)O)C(=O)N[C@H](CCC(=O)O)C(=O)N[C@H](CCC(=O)O)C(=O)N[C@H](CCC(=O)O)C(=O)N[C@H](CCC(=O)O)C(=O)N[C@H](CCC(=O)O)C(=O)NCCCCCC(=O)N1CCC[C@H]1C(=O)N[C@@H](CC(C)C)C(=O)NCC(=O)N[C@@H](CC(C)C)C(=O)N[C@@H](C)C(=O)NCC(=O)N[C@H](CCCNC(=N)N)C(=O)N[C@H](CC(C)C)C(=O)NC(C)(C)C(=O)N[C@H](CCCNC(=N)N)C(=O)N[C@H](CCCNC(=N)N)C(=O)N[C@H](CC(C)C)C(=O)NC(C)(C)C(=O)N[C@H](CCCNC(=N)N)C(=O)N[C@H](CC(C)C)C(=O)NC(C)(C)C(=O)N[C@H](CCCNC(=N)N)C(N)=O [e7-Ur11]
MDA-MB-231 tumour
  tumour accumulation (in vivo fluorescence imaging): significantly higher accumulation in tumours compared to unmodified peptides
MDA-MB-231 tumour; [3]
  uptake in excised tumour: higher compared to UK14 and Ur11
Mouse red blood cells; [4]
  haemolytic activity: diminished membrane disruption and haemolysis
Nude mice
  acute toxicity (survival): caused death (one in three survived)
HEK293T
  cytotoxicity against non-tumourigenic HEK293T: no obvious cytotoxicity
kidney
  kidney histology (haematoxylin-eosin staining): bleeding was observed at the junction of renal

## CC(=O)N[C@H](Cc1c[nH]c2ccccc12)C(=O)NCCC(=O)N[C@H](CCC(=O)O)C(=O)N[C@H](CCC(=O)O)C(=O)N[C@H](CCC(=O)O)C(=O)N[C@H](CCC(=O)O)C(=O)N[C@H](CCC(=O)O)C(=O)N[C@H](CCC(=O)O)C(=O)N[C@H](CCC(=O)O)C(=O)N[C@H](CCC(=O)O)C(=O)NCCCCCC(=O)N1CCC[C@H]1C(=O)N[C@@H](CC(C)C)C(=O)NCC(=O)N[C@@H](CC(C)C)C(=O)N[C@@H](C)C(=O)NCC(=O)N[C@H](CCCCN)C(=O)N[C@H](CC(C)C)C(=O)NC(C)(C)C(=O)N[C@H](CCCCN)C(=O)N[C@H](CC(C)C)C(=O)NC(C)(C)C(=O)N[C@H](CCCCN)C(=O)N[C@H](CCCCN)C(=O)N[C@H](CC(C)C)C(=O)NC(C)(C)C(=O)N[C@H](CCCCN)C(=O)N[C@H](CC(C)C)C(=O)NC(C)(C)C(=O)N[C@H](CCCCN)C(N)=O [e8-Uk14] (Ac-[dW][βAla][dE][dE][dE][dE][dE][dE][dE][dE][Ahx]PLGLAG[dK][dL][Aib][dK][dL][Aib][dK][dK][dL][Aib][dK][dL][Aib][dK]-NH2)
MDA-MB-231 tumour
  tumour accumulation (in vivo fluorescence imaging): significantly higher accumulation in tumours compared to unmodified peptides
MDA-MB-231 tumour; [3]
  accumulation in kidney: lower accumulation in the kidney
  accumulation in liver: higher accumulation in the liver
  uptake in excised tumour: higher compared to UK14 and Ur11
Mouse red blood cells; [4]
  haemolytic activity: diminished membrane disruption and haemolysis
Nude mice
  acute toxicity (survival): no acute toxicity
HEK293T
  cytotoxicity against non-tumourigenic HEK293T: no obvious cytotoxicity

## CC(=O)N[C@H](Cc1c[nH]c2ccccc12)C(=O)NCCC(=O)N[C@H](CC(C)C)C(=O)N[C@H](CC(C)C)C(=O)N[C@H](CC(C)C)C(=O)N[C@H](CC(C)C)C(=O)NC(C)(C)C(=O)NC(C)(C)C(=O)NC(C)(C)C(=O)NC(C)(C)C(=O)N[C@H](CCCCN)C(=O)N[C@H](CCCCN)C(=O)N[C@H](CCCCN)C(=O)N[C@H](CCCCN)C(=O)N[C@H](CCCCN)C(=O)N[C@H](CCCCN)C(N)=O [lUk] (Ac-[dW][βAla][dL][dL][dL][dL][Aib][Aib][Aib][Aib][dK][dK][dK][dK][dK][dK]-NH2)
MDA-MB-231 [1]; MTT assay, 24 h treatment
  cytotoxic activity towards MDA-MB-231 cells (in words): decreased efficiency
